Source: the kinase profiling compilation of Christmann-Franck et al. (2016)

Tests used:
CAMK2D (human) = CAMK2D (human) (UniProt Q13557); test: SelectScreen, TR FRET; conditions: compound 5.0 µM
CSNK2A2 (human) = CSNK2A2 (human) (UniProt P19784); test: SelectScreen, TR FRET; conditions: compound 5.0 µM
CSNK1A1 (human) = CSNK1A1 (human) (UniProt P48729); test: SelectScreen, TR FRET; conditions: compound 5.0 µM
CSNK2A1 (human) = CSNK2A1 (human) (UniProt P68400); test: SelectScreen, TR FRET; conditions: compound 5.0 µM
[1] = test system: LYN (human), P07948 [23-43 del]; test: SelectScreen, TR FRET; conditions: compound 5.0 µM
IRAK4 (human) = IRAK4 (human) (UniProt Q9NWZ3); test: SelectScreen, TR FRET; conditions: compound 5.0 µM
STK25 (human) = STK25 (human) (UniProt O00506); test: SelectScreen, TR FRET; conditions: compound 5.0 µM
PAK4 (human) = PAK4 (human) (UniProt O96013); test: SelectScreen, TR FRET; conditions: compound 5.0 µM
MAP4K4 (human) = MAP4K4 (human) (UniProt O95819); test: SelectScreen, TR FRET; conditions: compound 5.0 µM
BTK (human) = BTK (human) (UniProt Q06187); test: SelectScreen, TR FRET; conditions: compound 5.0 µM
PRKD3 (human) = PRKD3 (human) (UniProt O94806); test: SelectScreen, TR FRET; conditions: compound 5.0 µM
ATR (human) = ATR (human) (UniProt Q13535); test: Alphascreen
ATR (human), sequence (Q13535 whole entry, looked up): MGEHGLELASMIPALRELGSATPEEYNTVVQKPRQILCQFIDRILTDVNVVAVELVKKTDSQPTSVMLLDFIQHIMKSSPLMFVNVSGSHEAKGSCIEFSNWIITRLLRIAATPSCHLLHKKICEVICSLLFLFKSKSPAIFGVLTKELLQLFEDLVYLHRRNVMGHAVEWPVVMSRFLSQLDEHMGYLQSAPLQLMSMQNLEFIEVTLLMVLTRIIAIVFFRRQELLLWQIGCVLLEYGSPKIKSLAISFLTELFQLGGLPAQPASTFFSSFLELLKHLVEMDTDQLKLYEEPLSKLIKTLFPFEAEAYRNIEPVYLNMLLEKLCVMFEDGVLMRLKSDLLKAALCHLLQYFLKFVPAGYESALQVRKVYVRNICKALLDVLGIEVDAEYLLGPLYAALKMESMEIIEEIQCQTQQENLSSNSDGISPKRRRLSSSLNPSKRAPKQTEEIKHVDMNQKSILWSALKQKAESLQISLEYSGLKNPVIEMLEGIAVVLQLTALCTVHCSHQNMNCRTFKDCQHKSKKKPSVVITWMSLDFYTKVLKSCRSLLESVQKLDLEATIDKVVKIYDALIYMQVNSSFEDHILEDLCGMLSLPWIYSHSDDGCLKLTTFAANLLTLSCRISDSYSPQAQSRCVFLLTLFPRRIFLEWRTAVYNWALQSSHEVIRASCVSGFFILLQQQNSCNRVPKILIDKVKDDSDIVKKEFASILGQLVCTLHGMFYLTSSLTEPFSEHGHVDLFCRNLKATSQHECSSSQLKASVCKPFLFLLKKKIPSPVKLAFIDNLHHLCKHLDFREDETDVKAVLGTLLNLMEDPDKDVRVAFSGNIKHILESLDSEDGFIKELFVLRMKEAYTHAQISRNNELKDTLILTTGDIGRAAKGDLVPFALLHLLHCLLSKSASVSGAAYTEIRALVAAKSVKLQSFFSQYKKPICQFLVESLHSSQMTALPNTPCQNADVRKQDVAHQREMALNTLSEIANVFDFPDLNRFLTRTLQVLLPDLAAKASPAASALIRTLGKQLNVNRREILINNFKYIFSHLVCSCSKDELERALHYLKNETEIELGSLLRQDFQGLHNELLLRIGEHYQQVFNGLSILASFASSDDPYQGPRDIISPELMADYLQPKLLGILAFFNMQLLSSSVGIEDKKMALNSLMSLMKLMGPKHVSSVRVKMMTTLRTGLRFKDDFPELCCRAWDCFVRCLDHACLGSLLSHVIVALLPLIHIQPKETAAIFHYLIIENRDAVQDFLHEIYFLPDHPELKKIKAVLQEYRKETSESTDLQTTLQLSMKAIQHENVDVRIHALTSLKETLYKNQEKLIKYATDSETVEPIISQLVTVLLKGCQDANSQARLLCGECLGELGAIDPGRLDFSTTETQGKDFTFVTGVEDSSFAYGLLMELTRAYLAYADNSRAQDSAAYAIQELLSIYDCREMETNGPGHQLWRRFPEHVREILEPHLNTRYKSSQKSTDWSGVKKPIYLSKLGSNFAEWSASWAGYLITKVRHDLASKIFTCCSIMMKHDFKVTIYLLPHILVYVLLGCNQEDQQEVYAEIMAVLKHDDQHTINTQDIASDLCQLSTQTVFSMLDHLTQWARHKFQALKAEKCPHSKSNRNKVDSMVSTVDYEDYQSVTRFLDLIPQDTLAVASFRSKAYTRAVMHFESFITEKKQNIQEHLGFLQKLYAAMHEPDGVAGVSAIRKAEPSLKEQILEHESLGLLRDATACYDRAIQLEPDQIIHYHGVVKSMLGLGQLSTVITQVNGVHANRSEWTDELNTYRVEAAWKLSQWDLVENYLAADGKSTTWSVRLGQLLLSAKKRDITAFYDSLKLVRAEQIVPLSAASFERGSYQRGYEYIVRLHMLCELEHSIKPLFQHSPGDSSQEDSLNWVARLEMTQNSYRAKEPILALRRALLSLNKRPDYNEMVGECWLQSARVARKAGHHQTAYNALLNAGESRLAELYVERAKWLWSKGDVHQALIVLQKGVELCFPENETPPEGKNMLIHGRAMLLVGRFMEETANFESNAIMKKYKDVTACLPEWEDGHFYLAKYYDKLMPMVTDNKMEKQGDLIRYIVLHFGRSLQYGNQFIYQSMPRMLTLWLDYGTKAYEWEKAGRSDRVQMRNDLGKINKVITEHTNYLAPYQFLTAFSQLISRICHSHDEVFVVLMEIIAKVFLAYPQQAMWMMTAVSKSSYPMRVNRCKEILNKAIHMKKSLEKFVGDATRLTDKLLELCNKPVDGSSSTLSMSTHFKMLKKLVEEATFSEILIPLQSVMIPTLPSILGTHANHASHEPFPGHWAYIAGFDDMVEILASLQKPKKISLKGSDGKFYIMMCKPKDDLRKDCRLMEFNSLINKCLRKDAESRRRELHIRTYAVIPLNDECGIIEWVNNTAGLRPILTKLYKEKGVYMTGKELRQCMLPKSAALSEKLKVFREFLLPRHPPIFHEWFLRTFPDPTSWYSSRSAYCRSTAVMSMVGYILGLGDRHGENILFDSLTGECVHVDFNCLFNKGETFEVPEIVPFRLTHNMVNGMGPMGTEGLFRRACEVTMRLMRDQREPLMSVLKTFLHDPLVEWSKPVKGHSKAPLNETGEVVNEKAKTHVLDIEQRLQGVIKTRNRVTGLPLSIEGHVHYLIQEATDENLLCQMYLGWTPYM

PRKD3 (human), sequence (O94806 whole entry, looked up): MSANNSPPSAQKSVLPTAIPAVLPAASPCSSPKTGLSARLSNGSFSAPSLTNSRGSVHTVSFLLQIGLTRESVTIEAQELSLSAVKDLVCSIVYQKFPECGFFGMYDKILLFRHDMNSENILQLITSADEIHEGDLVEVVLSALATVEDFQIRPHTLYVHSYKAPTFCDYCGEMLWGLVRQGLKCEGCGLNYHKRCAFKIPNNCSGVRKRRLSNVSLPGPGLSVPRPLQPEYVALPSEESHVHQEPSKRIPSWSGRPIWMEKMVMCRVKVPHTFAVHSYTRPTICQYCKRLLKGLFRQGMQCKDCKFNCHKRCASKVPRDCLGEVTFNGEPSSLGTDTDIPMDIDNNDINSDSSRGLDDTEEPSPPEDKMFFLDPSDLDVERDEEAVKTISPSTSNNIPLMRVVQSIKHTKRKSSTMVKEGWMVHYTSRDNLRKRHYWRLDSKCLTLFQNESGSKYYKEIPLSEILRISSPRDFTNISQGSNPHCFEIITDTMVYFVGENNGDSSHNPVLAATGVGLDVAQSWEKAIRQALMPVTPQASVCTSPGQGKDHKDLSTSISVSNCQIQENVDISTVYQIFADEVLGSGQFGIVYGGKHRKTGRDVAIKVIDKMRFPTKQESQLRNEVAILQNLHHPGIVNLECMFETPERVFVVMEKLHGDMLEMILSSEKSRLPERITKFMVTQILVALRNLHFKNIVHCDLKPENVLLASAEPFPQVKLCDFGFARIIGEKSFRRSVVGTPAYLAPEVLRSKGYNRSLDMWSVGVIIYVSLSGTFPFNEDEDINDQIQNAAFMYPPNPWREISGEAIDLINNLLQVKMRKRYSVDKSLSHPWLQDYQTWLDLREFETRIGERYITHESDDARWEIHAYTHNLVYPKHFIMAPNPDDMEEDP
IRAK4 (human), sequence (Q9NWZ3 whole entry, looked up): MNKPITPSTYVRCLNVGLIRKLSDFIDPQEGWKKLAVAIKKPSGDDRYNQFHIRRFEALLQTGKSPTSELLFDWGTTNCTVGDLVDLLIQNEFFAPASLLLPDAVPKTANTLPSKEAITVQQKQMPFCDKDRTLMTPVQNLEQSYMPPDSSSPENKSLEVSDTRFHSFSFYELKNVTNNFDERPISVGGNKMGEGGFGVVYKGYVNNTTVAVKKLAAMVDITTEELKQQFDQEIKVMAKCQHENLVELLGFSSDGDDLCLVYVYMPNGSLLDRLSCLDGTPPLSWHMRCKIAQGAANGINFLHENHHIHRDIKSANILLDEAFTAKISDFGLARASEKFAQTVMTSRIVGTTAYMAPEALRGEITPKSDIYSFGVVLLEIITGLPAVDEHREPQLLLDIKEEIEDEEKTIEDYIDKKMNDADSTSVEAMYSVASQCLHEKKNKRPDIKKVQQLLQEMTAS
PAK4 (human), sequence (O96013 whole entry, looked up): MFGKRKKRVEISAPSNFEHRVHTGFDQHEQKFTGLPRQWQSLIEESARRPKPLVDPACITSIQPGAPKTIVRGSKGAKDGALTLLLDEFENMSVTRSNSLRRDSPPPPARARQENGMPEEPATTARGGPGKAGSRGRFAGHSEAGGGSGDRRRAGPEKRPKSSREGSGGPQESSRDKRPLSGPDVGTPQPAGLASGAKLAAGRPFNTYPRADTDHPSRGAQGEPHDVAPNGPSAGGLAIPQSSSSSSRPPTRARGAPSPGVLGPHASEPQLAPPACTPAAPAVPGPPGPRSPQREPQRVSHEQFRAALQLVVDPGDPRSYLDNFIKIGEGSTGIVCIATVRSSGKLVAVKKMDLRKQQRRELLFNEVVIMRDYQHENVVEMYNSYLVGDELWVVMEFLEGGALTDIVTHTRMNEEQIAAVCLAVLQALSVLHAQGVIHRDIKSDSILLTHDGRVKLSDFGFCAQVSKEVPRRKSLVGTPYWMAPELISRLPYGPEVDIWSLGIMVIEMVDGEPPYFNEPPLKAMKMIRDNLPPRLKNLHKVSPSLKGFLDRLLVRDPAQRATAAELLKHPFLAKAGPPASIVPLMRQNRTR
CAMK2D (human), sequence (Q13557 whole entry, looked up): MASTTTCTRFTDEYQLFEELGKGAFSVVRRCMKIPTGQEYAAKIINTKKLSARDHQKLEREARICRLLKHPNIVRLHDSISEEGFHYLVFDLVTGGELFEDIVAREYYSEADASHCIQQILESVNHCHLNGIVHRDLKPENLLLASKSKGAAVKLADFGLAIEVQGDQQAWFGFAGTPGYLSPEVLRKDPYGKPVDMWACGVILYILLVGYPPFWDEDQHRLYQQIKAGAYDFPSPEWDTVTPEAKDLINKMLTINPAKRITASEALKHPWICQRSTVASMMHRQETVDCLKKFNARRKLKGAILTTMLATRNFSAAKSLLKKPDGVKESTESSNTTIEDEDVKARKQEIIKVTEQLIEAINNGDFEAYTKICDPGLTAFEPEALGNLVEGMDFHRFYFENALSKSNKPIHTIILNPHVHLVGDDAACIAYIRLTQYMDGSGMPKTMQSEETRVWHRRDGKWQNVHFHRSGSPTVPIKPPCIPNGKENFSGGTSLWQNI

inhibition (CAMK2D (human)): 1%
inhibition (CSNK2A2 (human)): -2%
inhibition (CSNK1A1 (human)): -1%
inhibition (CSNK2A1 (human)): 1%
inhibition [1]: 3%
inhibition (IRAK4 (human)): 12%
inhibition (STK25 (human)): 6%
inhibition (PAK4 (human)): -2%
inhibition (MAP4K4 (human)): 1%
inhibition (BTK (human)): 3%
inhibition (PRKD3 (human)): 8%
IC50 (ATR (human)): 8.09 µM
SMILES: Nc1cc(C(F)(F)F)c(-c2cc(N3CCOCC3)nc(N3CCOCC3)n2)cn1
